Experimental data reported in publication PMC6798786 (Brain Communications, 2019).
Counter-ions that a name gives are not always drawn. Like-named read-outs stand apart in the source and are kept apart here.

Key:
human 5-HT2AR = human 5-HT2AR (Homo sapiens, UniProt P28223); assay: radioligand binding (NIMH PDSP); details: recombinant, stably expressed human receptor; clemizole analogues
Experimental: (§1) All in vitro binding assay and Ki data studies were performed by the US National Institute of Mental Health Psychoactive Drug Screening Program (NIMH PDSP). For these studies, drugs were screened against recombinant, stably expressed human 5-HT2AR, 5-HT2BR, 5-HT2CR and H1, as described at https://pdspdb.unc.edu/pdspWeb/ ([Besnard et al., 2012]).

human 5-HT2BR = human 5-HT2BR (Homo sapiens, UniProt P41595); assay: radioligand binding (NIMH PDSP); details: read-out: Ki 5-HT2BR
Chain of human 5-HT2BR (P41595 whole entry): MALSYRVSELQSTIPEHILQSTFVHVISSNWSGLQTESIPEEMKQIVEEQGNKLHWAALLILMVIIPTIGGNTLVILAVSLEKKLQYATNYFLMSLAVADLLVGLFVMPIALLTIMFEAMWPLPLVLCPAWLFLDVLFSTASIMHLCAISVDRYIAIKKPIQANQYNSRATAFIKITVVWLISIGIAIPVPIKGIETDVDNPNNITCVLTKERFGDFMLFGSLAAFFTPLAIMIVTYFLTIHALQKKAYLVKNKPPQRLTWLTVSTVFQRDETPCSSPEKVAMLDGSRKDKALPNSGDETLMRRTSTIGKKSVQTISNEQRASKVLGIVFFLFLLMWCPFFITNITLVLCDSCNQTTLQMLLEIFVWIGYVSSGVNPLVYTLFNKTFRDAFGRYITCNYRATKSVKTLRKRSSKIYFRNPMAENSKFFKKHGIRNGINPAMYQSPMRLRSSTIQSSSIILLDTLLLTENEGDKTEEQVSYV
Experimental: as §1

human 5-HT2CR = target: T1, human 5-HT2CR (Homo sapiens, UniProt P28335); assay: radioligand binding (NIMH PDSP)
T1 sequence (P28335 33-458): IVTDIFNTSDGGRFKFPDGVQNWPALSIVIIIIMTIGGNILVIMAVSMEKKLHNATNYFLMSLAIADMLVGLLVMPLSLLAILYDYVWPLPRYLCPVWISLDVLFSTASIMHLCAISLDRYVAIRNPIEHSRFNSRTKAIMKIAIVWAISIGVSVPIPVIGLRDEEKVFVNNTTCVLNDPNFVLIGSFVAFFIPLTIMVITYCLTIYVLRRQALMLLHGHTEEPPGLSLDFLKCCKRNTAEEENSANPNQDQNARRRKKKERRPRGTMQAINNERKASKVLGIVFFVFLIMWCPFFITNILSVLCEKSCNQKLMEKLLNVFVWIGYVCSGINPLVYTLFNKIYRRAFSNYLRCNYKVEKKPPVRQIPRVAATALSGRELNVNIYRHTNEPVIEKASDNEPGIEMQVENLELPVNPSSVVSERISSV
Experimental: as §1

human H1 = human H1 (Homo sapiens, UniProt P35367); assay: radioligand binding (NIMH PDSP); details: recombinant, stably expressed human receptor; clemizole analogues; read-out: Ki H1
Chain of human H1 (P35367 whole entry): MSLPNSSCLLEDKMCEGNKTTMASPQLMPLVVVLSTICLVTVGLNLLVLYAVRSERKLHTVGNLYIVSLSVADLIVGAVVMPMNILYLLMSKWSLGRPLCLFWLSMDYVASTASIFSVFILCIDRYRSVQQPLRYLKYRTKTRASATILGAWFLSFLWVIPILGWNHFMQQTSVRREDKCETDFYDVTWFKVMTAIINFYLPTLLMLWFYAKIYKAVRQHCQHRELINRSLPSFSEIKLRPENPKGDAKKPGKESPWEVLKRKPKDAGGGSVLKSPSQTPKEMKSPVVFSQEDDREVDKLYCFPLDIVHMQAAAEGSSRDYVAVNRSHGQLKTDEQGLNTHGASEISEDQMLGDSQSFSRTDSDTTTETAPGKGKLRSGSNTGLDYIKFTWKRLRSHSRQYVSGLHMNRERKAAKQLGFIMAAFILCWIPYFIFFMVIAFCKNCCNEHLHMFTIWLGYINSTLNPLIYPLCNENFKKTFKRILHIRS
Experimental: as §1

scn1lab mutant zebrafish = assay: locomotion (mean swim velocity) seizure-like behaviour assay in scn1lab mutant zebrafish larvae; assay type: in vivo, Danio rerio; details: for change in vivo at 100 µM / change in vivo at 250 µM: Danio rerio
Experimental: (§2) For locomotion studies, zebrafish larvae (5 days post-fertilization) were placed into a single well of a clear flat-bottomed 96-well microplate containing embryo media. Sex determination is not possible at this stage of development. All drug screening experiments were conducted in an unbiased manner by investigators blinded to the test compounds and all files coded for post hoc analysis. The 96-well plate containing larvae was then placed inside a DanioVision box where they were allowed to acclimate (20 min; room temperature). EthoVision XT software (DanioVision, Noldus Information Technology) was used to obtain locomotion plots (10 min in duration). Seizure scoring was performed, as described ([Baraban et al., 2005]). All locomotion plots were analysed for distance travelled (in millimetres) and mean velocity (in millimetres per second). After 90 min of drug exposure larvae were examined for toxic side-effects. Compounds that decreased or stopped the larva heartbeat, or reduced or eliminated the escape response when touched, were considered toxic.
For behaviour analysis, the threshold for a change in mean swim velocity ≥40% is considered significant (>1.5× SD of 250 control treated scn1lab). Unless otherwise indicated, all data in this manuscript are presented as the mean ± standard error of the mean. […] Statistically significant differences are indicated with asterisks (*P < 0.05; **P < 0.01; ***P < 0.001). […]

[1] = test system: scn1lab mutant zebrafish larvae; assay: toxicity check of larvae after 90 min drug exposure (heartbeat, escape response); assay type: in vivo, Danio rerio; details: 100 µM or 250 µM; 90 min exposure
Experimental: as §2, with “Seizure scoring was performed, as described ([Baraban et al., 2005]).” left out

[2] = recombinant, stably expressed human receptor, clemizole analogues
[3] = read-out: % change in velocity, individual larva 1 (heat map)
[4] = read-out: % change in velocity, individual larva 2 (heat map)
[5] = read-out: % change in velocity, individual larva 3 (heat map)
[6] = read-out: % change in velocity, individual larva 4 (heat map)
[7] = read-out: % change in velocity, individual larva 5 (heat map)
[8] = read-out: % change in velocity, individual larva 6 (heat map)
[9] = read-out: mean velocity change from six fish, Trial 1
[10] = read-out: mean velocity change from six fish, Trial 2

Chain of human 5-HT2AR (P28223 whole entry): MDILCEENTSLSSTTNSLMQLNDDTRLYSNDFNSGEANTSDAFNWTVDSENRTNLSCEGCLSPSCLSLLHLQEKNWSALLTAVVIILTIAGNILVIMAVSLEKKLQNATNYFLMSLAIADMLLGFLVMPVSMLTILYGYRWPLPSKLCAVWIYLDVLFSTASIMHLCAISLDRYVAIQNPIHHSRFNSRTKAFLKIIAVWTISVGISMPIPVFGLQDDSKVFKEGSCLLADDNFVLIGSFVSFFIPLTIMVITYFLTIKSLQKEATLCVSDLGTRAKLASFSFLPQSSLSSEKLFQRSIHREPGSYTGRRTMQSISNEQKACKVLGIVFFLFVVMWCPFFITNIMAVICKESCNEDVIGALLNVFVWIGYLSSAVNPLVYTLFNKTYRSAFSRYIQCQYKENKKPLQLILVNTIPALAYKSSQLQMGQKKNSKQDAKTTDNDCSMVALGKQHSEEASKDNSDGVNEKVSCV

Q: `CN1CCN(Cc2nc3ccccc3n2Cc2ccc(Cl)cc2)CC1` [Compound 26] was tested. Which Ki (human 5-HT2AR) did it give?
A: 316 nM

Q: And the Ki (human 5-HT2BR; [2])?
A: 20 nM

Q: What about the Ki (human 5-HT2CR; [2]) of the same compound?
A: 313 nM

Q: What about the Ki (human H1) of the same compound?
A: 1.2 nM

Q: `Nc1ccc(Cn2c(CN3CCCC3)nc3ccccc32)cc1` [Compound 14] was tested. Which “effect on seizure-like swim behaviour, initial library screen” value (scn1lab mutant zebrafish; 100 µM or 250 µM, UCSF-synthesized compound) did it give?
A: no significant effect on swim behaviour

Q: And the “effect on seizure-like swim behaviour, retest of independently synthesized compound” value (scn1lab mutant zebrafish; 10, 50, 100 and 250 µM, 30 and 90 min exposure)?
A: no significant effect on the swim behaviour

Q: And the Ki (human 5-HT2AR)?
A: > 10000 nM

Q: What about the Ki (human 5-HT2BR; [2]) of the same compound?
A: 606 nM

Q: What about the Ki (human 5-HT2CR; [2]) of the same compound?
A: > 10000 nM

Q: What about the Ki (human H1) of the same compound?
A: 27 nM

Q: For `Clc1ccc(Cn2c(CC3CCCC3)nc3ccccc32)cc1` [Compound 1], which change in vivo at 100 µM (scn1lab mutant zebrafish; [3]) is on record?
A: -100%

Q: And the change in vivo at 250 µM (scn1lab mutant zebrafish; [3])?
A: -100%

Q: And the change in vivo at 100 µM (scn1lab mutant zebrafish; [4])?
A: -100%

Q: What about the change in vivo at 250 µM (scn1lab mutant zebrafish; [4]) of the same compound?
A: -60%

Q: And the change in vivo at 100 µM (scn1lab mutant zebrafish; [5])?
A: -100%

Q: And the change in vivo at 250 µM (scn1lab mutant zebrafish; [5])?
A: -100%

Q: What about the change in vivo at 100 µM (scn1lab mutant zebrafish; [6]) of the same compound?
A: -100%

Q: What about the change in vivo at 250 µM (scn1lab mutant zebrafish; [6]) of the same compound?
A: -100%

Q: What about the change in vivo at 100 µM (scn1lab mutant zebrafish; [7]) of the same compound?
A: -100%

Q: And the change in vivo at 250 µM (scn1lab mutant zebrafish; [7])?
A: -100%

Q: And the change in vivo at 100 µM (scn1lab mutant zebrafish; [8])?
A: -100%

Q: And the change in vivo at 250 µM (scn1lab mutant zebrafish; [8])?
A: -100%

Q: What about the change in vivo at 100 µM (scn1lab mutant zebrafish; [9]) of the same compound?
A: -100%

Q: What about the change in vivo at 250 µM (scn1lab mutant zebrafish; [9]) of the same compound?
A: -96.2%

Q: What about the change in vivo at 100 µM (scn1lab mutant zebrafish; [10]) of the same compound?
A: -100%

Q: What about the “toxicity in initial analogue screening” value [1] of the same compound?
A: toxic

Q: And the Ki (human 5-HT2BR)?
A: 501 nM

Q: What about the Ki (human 5-HT2CR) of the same compound?
A: 2730 nM

Q: What does the source list for `Clc1ccc(Cn2c(CN3CCCCC3)nc3ccccc32)cc1` [Compound 22]?
A: toxicity in initial analogue screening [1]: toxic; Ki (human 5-HT2AR): 623 nM; Ki (human 5-HT2BR; [2]): 306 nM; Ki (human 5-HT2CR; [2]): 4580 nM; Ki (human H1): 8.5 nM

Q: For `Clc1ccc(Cn2c(CN3CCSC3)nc3ccccc32)cc1` [Compound 28], which Ki (human 5-HT2AR) is on record?
A: > 10000 nM

Q: What about the Ki (human 5-HT2BR; [2]) of the same compound?
A: 464 nM

Q: And the Ki (human 5-HT2CR; [2])?
A: 1080 nM

Q: What about the Ki (human H1) of the same compound?
A: 44 nM

Q: For `Clc1ccc(Cn2c(CN3CCOCC3)nc3ccccc32)cc1` [Compound 23], which “toxicity in initial analogue screening” value [1] is on record?
A: toxic

Q: And the Ki (human 5-HT2AR)?
A: > 10000 nM

Q: And the Ki (human 5-HT2BR; [2])?
A: 515 nM

Q: What about the Ki (human 5-HT2CR; [2]) of the same compound?
A: > 10000 nM

Q: What about the Ki (human H1) of the same compound?
A: 34 nM

Q: With `CC(C)C[C@H]1C(=O)N2CCC[C@H]2[C@]2(O)O[C@](NC(=O)[C@@H]3C=C4c5cccc6[nH]c(Br)c(c56)C[C@H]4N(C)C3)(C(C)C)C(=O)N12` [bromocriptine, Bromocriptine mesylate, reference compound] as the compound, how does the “effect on seizure-like swim behaviour at 10 µM” value (scn1lab mutant zebrafish; 10 µM) read?
A: significantly reduced seizure-like swim behaviour

Q: With `CN1CCc2cccc3c2[C@H]1Cc1ccc(O)c(O)c1-3` [apomorphine, (−)-Apomorphine hydrochloride, reference compound] as the compound, how does the “effect on seizure-like swim behaviour, commercially available compounds” value (scn1lab mutant zebrafish; three concentrations, 30 and 90 min exposure) read?
A: significantly increased mean swim velocity

Q: How did the change in vivo at 100 µM (scn1lab mutant zebrafish; [3]) turn out when `O=C(c1nc2ccccc2n1Cc1ccc(Cl)cc1)N1CCCC1` [Compound 2] was run?
A: -68.2%

Q: What about the change in vivo at 250 µM (scn1lab mutant zebrafish; [3]) of the same compound?
A: -100%

Q: What about the change in vivo at 100 µM (scn1lab mutant zebrafish; [4]) of the same compound?
A: -100%

Q: What about the change in vivo at 250 µM (scn1lab mutant zebrafish; [4]) of the same compound?
A: -100%

Q: And the change in vivo at 100 µM (scn1lab mutant zebrafish; [5])?
A: -100%

Q: And the change in vivo at 250 µM (scn1lab mutant zebrafish; [5])?
A: -100%

Q: What about the change in vivo at 100 µM (scn1lab mutant zebrafish; [6]) of the same compound?
A: -100%

Q: And the change in vivo at 250 µM (scn1lab mutant zebrafish; [6])?
A: -100%

Q: What about the change in vivo at 100 µM (scn1lab mutant zebrafish; [7]) of the same compound?
A: -100%

Q: And the change in vivo at 250 µM (scn1lab mutant zebrafish; [7])?
A: -100%

Q: And the change in vivo at 100 µM (scn1lab mutant zebrafish; [8])?
A: -100%

Q: What about the change in vivo at 250 µM (scn1lab mutant zebrafish; [8]) of the same compound?
A: -100%

Q: What about the change in vivo at 100 µM (scn1lab mutant zebrafish; [9]) of the same compound?
A: -97.2%

Q: And the change in vivo at 250 µM (scn1lab mutant zebrafish; [9])?
A: -100%

Q: What about the change in vivo at 100 µM (scn1lab mutant zebrafish; [10]) of the same compound?
A: -97.2%

Q: What about the “toxicity in initial analogue screening” value [1] of the same compound?
A: toxic
